From patent US20210087337A1, “COMPOUNDS, COMPOSITIONS AND METHODS RELATED TO ANTIMICROBIAL APPLICATIONS” (VYOME THERAPEUTICS LIMITED, priority 2016, published 2021)
≈ marks a conversion by molar mass, not a printed value. Where two headings read alike, the source gives them in different places.

How the values were obtained:
S. epidermidis S12-1 = experiment: MIC by micro broth dilution (CLSI); assay type: cell-based; settings: Staphylococcus epidermidis, S121
[1] = test system: Candida albicans (CCARM-14009); experiment: MIC by micro broth dilution (CLSI); assay type: cell-based; settings: for MIC: C. albicans CCARM 14009
Experimental: (§1) Materials: Brain heart infusion broth, Bacterial and fungal cultures, 96 wells plate, Autoclave, Incubator. The microbial strains used in the validation study/testing were procured from MTCC (Chandigarh, India)—S. aureus (MTCC-6908), E. coli (MTCC-1687); NCIM (Pune, India)—E. aerogenes (NCIM-5139); ATCC (USA): S. aureus (ATCC-43300), S. epidermidis (ATCC-35984), P. aeruginosa (ATCC-27853), A. baumanii (ATCC-19606), K. pneumoniae (ATCC-13883), E. coli (ATCC-BAA196); CCARM (Korea)—Candida albicans (CCARM-14009), P. aeruginosa (CCARM-2161) and A. baumanii (CCARM-12001).
(§2) Method: MIC of present molecules were determined by micro broth dilution method as per the Clinical and Laboratory Standards Institute (CLSI) guidelines. Microbial strains were cultured in appropriate media [Brain Heart Infusion Agar (BHIA) for bacteria and Sabouraud dextrose broth (SDB) for Candida] at 37° C. for 24 hours. […] For inoculum, microbial culture turbidity was adjusted to 0.1 optical density (OD) at 600 nm in UV—Visual spectrophotometer (approximately 1.5×10^8 cells/ml) and further diluted (100 times with sterile media). Diluted culture suspension (100 μl) was added to each well except sterility control wells (column 12 of 96 well plate). Column 11 of 96 well plate was used as growth control and vehicle control. The plates were incubated at 37° C. for 24 h. The MIC of the test compounds were determined by observing the lowest concentration of test compound that prevented the visual bacterial growth.

S. aureus (MTCC-6908) = experiment: MIC by micro broth dilution (CLSI); assay type: cell-based
Experimental: as §1, §2

[2] = test system: S. epidermidis (ATCC-35984); experiment: MIC by micro broth dilution (CLSI); assay type: cell-based
Experimental: as §1, §2

[3] = test system: S. epidermidis ATCC 35984 biofilm; experiment: S. epidermidis biofilm disruption assay (MTT); assay type: cell-based; settings: for EC50: Staphylococcus epidermidis, ATCC35984, read-out: Concentration (mg/ml) to disrupt 50% biofilm
Experimental: Materials: Brain heart infusion broth, S. epidermidis ATCC 35984, 96 well plates, Autoclave, Incubator, 0.05% MTT (3-(4,5-Dimethylthiazol-2-yl)-2,5-Diphenyltetrazolium Bromide) reagent prepared in water, Multiwell Plate Reader.
(§3) Method: S. epidermidis ATCC 35984 was grown in Brain Heart Infusion Agar (BHIA) at 37° C. for 24 h. The loop full of bacterial culture was suspended in sterile water and adjusted the turbidity to 0.1 OD at 600 nm in UV—Visual spectrophotometer (approximately 1.5×10^8) and further diluted (100 times with sterile BHI broth), 100 μL of culture suspension was added into 96 well plate and plates were incubated at 37° C. for 48 h for biofilm formation. The biofilm was washed twice with sterile water to remove the planktonic cells. Then biofilm was treated with 100 μL of BHI broth suspended with various concentrations of compounds of the present disclosure, and plates were further incubated at 37° C. for 24 h. The minimum biofilm disruption concentration (MBDC) was determined by staining the biofilm with MTT reagent incubated plates at 37° C. for 2 h. The precipitate was dissolved in 100 μl of dimethyl sulfoxide (DMSO) and the absorbance was measured at 600 nm in multi well plate reader. The minimum biofilm disruption concentration was calculated as subtracting the MTT OD value of drug treated with 48 h growth control.

[4] = test system: E. coli ATCC BAA196 biofilm; experiment: E. coli biofilm disruption assay (MTT); assay type: cell-based; settings: for Minimum biofilm disruption concentration: 24 h biofilm, 24 h treatment, MTT
Experimental: Materials: Brain heart infusion broth+1% glucose, Escherichia coli ATCC BAA196, 96 wells plate, Autoclave, Incubator, MTT, Multiwell Plate Reader.
(§4) Method: E. coli ATCC BAA196 was grown in Brain Heart Infusion Agar (BHIA) at 37° C. for 24 h. The loop full of bacterial culture was suspended in sterile water and the turbidity to 0.1 OD at 600 nm in UV—Visual spectrophotometer (approximately 1.5×10^8) and further diluted (100 times with sterile BHI broth+1% glucose), 100 μL of culture suspension was added into 96 well plate and plates were incubated at 37° C. for 24 h for biofilm formation. The biofilm was washed twice with sterile water to remove the planktonic cells. Then biofilm was treated with 100 μL of BHI broth+1% glucose suspended with various concentrations of compounds of the present disclosure, and plates were further incubated at 37° C. for 24 h. The minimum biofilm disruption concentration (MBDC) was determined by staining the biofilm with MTT reagent incubated plates at 37° C. for 2 h, and the precipitate was dissolved in 100 μl of dimethyl sulfoxide (DMSO) and the absorbance was measured at 600 nm in multi well plate reader. The minimum biofilm disruption concentration was calculated by subtracting the MTT OD value of drug treated with 24 h growth control.

[5] = test system: biofilm formed by gram positive, gram negative pathogen; experiment: Biofilm disruption activity, general statement; assay type: cell-based; settings: embodiment statement
Experimental: as §3, §4

HaCat cell line = experiment: Cytotoxicity MTT assay; assay type: cell-based, human
Experimental: Different dilutions of compounds of the present disclosure in DMSO were used for the MTT assay so that the final concentration of DMSO in the assay was <5%. […] After 3 h incubation, MTT was removed and 100 μl of DMSO was added. Absorbance was measured in an ELISA reader at 570 nm. The assay controls were (a) medium control (medium without cells), (b) negative control (medium with cells but without the experimental compound), (iii) positive control (medium with cells and with 50 μM camptothecin). The experiment was done in triplicates and the data plotted as viability of cells in percentage.

[6] = test system: A. baumannii [ATCC 19606]; experiment: MIC by micro broth dilution (CLSI); assay type: cell-based
Experimental: as §1, §2

E. aerogenes (NCIM-5139) = experiment: MIC by micro broth dilution (CLSI); assay type: cell-based
Experimental: as §1, §2

E. coli (ATCC-BAA196) = experiment: MIC by micro broth dilution (CLSI); assay type: cell-based
Experimental: as §1, §2

E. coli (MTCC-1687) = experiment: MIC by micro broth dilution (CLSI); assay type: cell-based
Experimental: as §1, §2

[7] = test system: K. pneumoniae [ATCC 1388]; experiment: MIC by micro broth dilution (CLSI); assay type: cell-based
Experimental: as §1, §2

[8] = test system: P. aeruginosa (ATCC-27853); experiment: MIC by micro broth dilution (CLSI); assay type: cell-based
Experimental: as §1, §2

S. aureus (ATCC-43300) = experiment: MIC by micro broth dilution (CLSI); assay type: cell-based
Experimental: as §1, §2

MRSA = experiment: MIC test, text summary against MRSA; assay type: cell-based, S. aureus
Experimental: as §1
as §2, with “Column 11 of 96 well plate was used as growth control and vehicle control. The plates were incubated at 37° C. for 24 h.” left out

E. coli = experiment: MIC test, text summary against E. coli (strain not stated); assay type: cell-based
Experimental: as §1
as §2, with “Column 11 of 96 well plate was used as growth control and vehicle control. The plates were incubated at 37° C. for 24 h.” left out

[9] = test system: Bacterial and fungal cultures; experiment: MIC test, overall antimicrobial activity in words; assay type: cell-based; settings: overall statement on MIC results
Experimental: as §1
as §2, with “Column 11 of 96 well plate was used as growth control and vehicle control. The plates were incubated at 37° C. for 24 h.” left out

[10] = Water solubility as described; assay type: physicochemical
Gram positive pathogen = experiment: MIC test, text summary against Gram positive pathogens; assay type: cell-based
Experimental: as §1
as §2, with “Column 11 of 96 well plate was used as growth control and vehicle control. The plates were incubated at 37° C. for 24 h.” left out

Gram negative pathogens = experiment: MIC test, against Gram negative pathogens; assay type: cell-based
Experimental: as §1
as §2, with “Column 11 of 96 well plate was used as growth control and vehicle control. The plates were incubated at 37° C. for 24 h.” left out

[11] = Candida albicans, CCARM14009, read-out: MIC
[12] = Staphylococcus aureus, MTCC6908, read-out: MIC
[13] = Staphylococcus epidermidis, ATCC35984, read-out: MIC
[14] = 48 h biofilm, 24 h treatment, MTT

Molecule `CCCCCCCCCCCCSC[C@@H](NC(C)=O)C(=O)N(CCCN)CCCN.Cl.Cl` [SMP-002, (S)-2-Acetamido-N,N-bis(3-aminopropyl)-3-(dodecylthio)propanamide di-hydrochloride] has an MIC (S. epidermidis S12-1) of 25 µg/mL, an MIC [1, 11] of 100 µg/mL and an MIC (S. aureus (MTCC-6908); [12]) of 25 µg/mL. The MIC [2, 13] was 8 to 13 µg/mL, the “anti-biofilm activity against S. epidermidis” value [3] was “maintain anti-biofilm activity like SMP-001” and the EC50 [3, 14] was 0.01 mg/mL. The “Minimum biofilm disruption concentration” value [4] was 2 to 4 mg/mL and the “biofilm disruption activity” value [5] was “biofilm disruption activity”.

In the case of `N=C(NCCCCCCNC(=N)NC(=N)Nc1ccc(Cl)cc1)NC(=N)Nc1ccc(Cl)cc1` [Chlorohexidine, reference compound], the “IC50 in HaCat cell line” value (HaCat cell line; 48 h, MTT) was roughly 200 µg/mL (≈ 396 µM).

For `CCCCCCCCC/C=C\CCCCCCCCSC[C@@H](NC(C)=O)C(=O)N(CCCN)CCCN.Cl.Cl` [SMP-047, (S,Z)-2-Acetamido-N,N-bis(3-aminopropyl)-3-(nonadec-9-en-1-ylthio)propanamide di-hydrochloride], the MIC (S. epidermidis S12-1) was 50 µg/mL, the MIC ([6]; Acinetobacter baumannii, ATCC19606, read-out: MIC) was greater than 256 µg/mL and the “antifungal activity against Candida species” value [1] was “potent antifungal activity”. It also gave an MIC [1, 11] of 50 µg/mL, an MIC (E. aerogenes (NCIM-5139); Klebsiella aerogenes, NCIM5139, read-out: MIC) greater than 256 µg/mL and an MIC (E. coli (ATCC-BAA196); Escherichia coli, ATCCBAA196, read-out: MIC) of 100 µg/mL. It also gave an MIC (E. coli (MTCC-1687); Escherichia coli, MTCC1687, read-out: MIC) of 0.8 µg/mL, an MIC ([7]; Klebsiella pneumoniae, ATCC1388, read-out: MIC) greater than 256 µg/mL and an MIC ([8]; Pseudomonas aeruginosa, ATCC27853, read-out: MIC) greater than 256 µg/mL. It also gave an MIC (S. aureus (ATCC-43300); Staphylococcus aureus, ATCC43300, read-out: MIC) of 6.25 µg/mL, an MIC (S. aureus (MTCC-6908); [12]) of 6.25 µg/mL and an MIC [2, 13] of 6.25 µg/mL. The EC50 [3, 14] was greater than 2 mg/mL, the IC50 (HaCat cell line; Homo sapiens, HaCaT, 48 h, MTT) was 200 to 400 µg/mL and the “safety profile in HaCaT cell lines” value (HaCat cell line; compared with PHMB and chlorohexidine) was “better safety profile”. For the same molecule, the “antibacterial activity against MRSA” value (MRSA) was “potent antibacterial activity”, the “activity towards resistant E. coli” value (E. coli) was “potent” and the “antimicrobial / antibacterial activity” value [9] was “broad spectrum antibacterial activity”. The “biofilm disruption activity” value [5] was “biofilm disruption activity” and the “water solubility” value [10] was “water soluble”.

With `CCCCCCCCCCCCSC[C@@H](NC(C)=O)C(=O)N(CCCCNC(=O)[C@@H](N)CNC(=N)N)CCCNC(=O)[C@@H](N)CNC(=N)N.Cl` [SMP-051] the MIC [6] was 128.0 µg/mL, the MIC [1] was 200 µg/mL and the MIC (E. aerogenes (NCIM-5139)) was 8.0 µg/mL. The MIC (E. coli (ATCC-BAA196)) was 100 µg/mL, the MIC (E. coli (MTCC-1687)) was 1.6 µg/mL and the MIC [7] was 8.0 µg/mL. For the same molecule, the MIC [8] was 16.0 µg/mL, the MIC (S. aureus (ATCC-43300)) was 6.25 µg/mL and the MIC (S. aureus (MTCC-6908)) was 6.25 µg/mL. For the same molecule, the MIC [2] was 1.6 µg/mL, the “Concentration (mg/ml) to disrupt 50% biofilm” value [3, 14] was greater than 2 mg/mL and the “disruption of E. coli biofilm” value [4] was “the best”. For the same molecule, the “Minimum biofilm disruption concentration” value [4] was 0.25 to 0.5 mg/mL, the “IC50 in HaCat cell line” value (HaCat cell line; 48 h, MTT) was roughly 25.0 µg/mL and the “improvement of antibacterial activity in comparison to SMP-002” value (Gram positive pathogen) was 10-20 fold. For the same molecule, the “activity against Gram negative pathogens” value (Gram negative pathogens) was “very efficient”, the “improvement of antibacterial activity in comparison to SMP-002” value (Gram negative pathogens; against Gram negative pathogen) was 100-150 fold and the “antimicrobial / antibacterial activity” value [9] was “broad spectrum antibacterial activity”. The “biofilm disruption activity” value [5] was “biofilm disruption activity”.

In the case of `CCCCCCCCCCCCSC[C@H](NC(C)=O)C(=O)O` [SMP-001, N-Acetyl-S-dodecyl-L-cysteine], the “anti-biofilm activity against S. epidermidis” value [3] was “destroy biofilm effectively”, the EC50 [3, 14] was 0.02 to 0.125 mg/mL (≈ 60.3 to 377 µM) and the “Minimum biofilm disruption concentration” value [4] was 0.5 to 2.0 mg/mL. The “biofilm disruption activity” value [5] was “biofilm disruption activity”.

Work on `CC(=O)N[C@@H](CS)C(=O)O` [NAC, N-acetyl cysteine, reference compound] yielded an EC50 [3, 14] greater than 4 mg/mL.
